The subject of this assay is HBV. The assay is described as follows: Anti-HBV assay (inhibition of HBV replication in HepG2.cl42 cells, HBV DNA by qPCR). The class given is cell-based, HBV ayw strain. As to conditions: Hepatitis B virus, 96 h, treated four days, HBV DNA quantified by real time PCR, read-out: HBsAg EC50. (In qPCR the cycle at which signal appears reflects the starting amount.)

Structures are written as SMILES. A value given as a limit tells only on which side of the number the result lay.

On to `Cc1nc(-c2onc3c2[C@H](C)N(C(=O)Nc2cc(F)c(F)c(F)c2)CC3)cs1` [Compound 30, (S)-4-methyl-3-(2-methylthiazol-4-yl)-N-(3,4,5-trifluorophenyl)-6,7-dihydroisoxazolo[4,3-c]pyridine-5(4H)-carboxamide], for which the half-maximal effective concentration (EC50) (in general, the concentration giving half of the maximal effect) was no less than 1 µM.
In the case of `C[C@H]1Cc2noc(N3CCCCC3=O)c2CN1C(=O)Nc1ccc(C#N)c(F)c1` [Compound 47, (S)—N-(4-cyano-3-fluorophenyl)-6-methyl-3-(2-oxopiperidin-1-yl)-6,7-dihydroisoxazolo[4,3-c]pyridine-5(4H)-carboxamide] it was 0.1 to 1 µM; in that of `C[C@H]1Cc2noc(N3CCCC3=O)c2CN1C(=O)Nc1ccc(F)c(C#N)c1` [Compound 53, (S)—N-(3-cyano-4-fluorophenyl)-6-methyl-3-(2-oxopyrrolidin-1-yl)-6,7-dihydroisoxazolo[4,3-c]pyridine-5(4H)-carboxamide], less than 0.1 µM.
In the case of `C[C@H]1Cc2noc(N3CCCOC3=O)c2CN1C(=O)Nc1ccc(F)c(C(F)F)c1` [Compound 50, (S)—N-(3-(difluoromethyl)-4-fluorophenyl)-6-methyl-3-(2-oxo-1,3-oxazinan-3-yl)-6,7-dihydroisoxazolo[4,3-c]pyridine-5(4H)-carboxamide] it was less than 0.1 µM.
On to `Cc1nc(-c2onc3c2CN(C(=O)Nc2cc(F)c(F)c(F)c2)[C@@H](C)C3)co1` [Compound 35], for which the EC50 was 0.1 to 1 µM.
In the case of `O=C(Nc1cc(F)c(F)c(C(F)F)c1)N1CCc2noc(N3CCCOC3=O)c2C1` [Compound 45, N-(3-(difluoromethyl)-4,5-difluorophenyl)-3-(2-oxo-1,3-oxazinan-3-yl)-6,7-dihydroisoxazolo[4,3-c]pyridine-5(4H)-carboxamide] it was less than 0.1 µM; in that of `Cc1nc(-c2onc3c2[C@H](C)N(C(=O)Nc2cc(F)c(F)c(F)c2)CC3)c(C)o1` [Compound 40], no less than 1 µM.
In the case of `Cc1nc(-c2onc3c2[C@H](C)N(C(=O)Nc2cc(F)c(F)c(F)c2)CC3)co1` [Compound 36] it was no less than 1 µM.

These data come from US20210079015A1, “NOVEL DIHYDROISOXAZOLE COMPOUNDS AND THEIR USE FOR THE TREATMENT OF HEPATITIS B” (Novartis AG, priority 2017, published 2021).
